{"source": "patent US20260041695A1", "about": "“COMBINATION THERAPIES FOR TREATMENT OF BREAST CANCER” (Genentech, Inc., priority 2019, published 2026)", "key": {"[1]": {"test": "Phase Ib GDC-0077 + letrozole with or without palbociclib: pharmacokinetics", "format": "in vivo, human"}, "[2]": {"conditions": "cited from earlier work"}, "[3]": {"test_system": "MCF-7 (PIK3CA mutant E545K, ER+) breast carcinoma xenograft", "test": "MCF-7 xenograft efficacy", "conditions": "for % TGI: G 25 mg/kg oral QD 21 days, P 50 mg/kg oral QD 21 days, F 200 mg/kg s.c. weekly 3 weeks, groups of 12 animals; for CR / PR: number of animals, groups of 12, doses as for % TGI", "method": "Implant 0.36 mg estradiol pellets, s.c. between the scapulae, 1-3 days prior to cell implantation.\nSet up CR female NCr nu/nu mice with 1×10^7 MCF7 tumor cells in 0% Matrigel sc in mammary fat pad.\nPerform a pair match when tumors reach an average size of 180-220 mm^3, and begin treatment.\nCaliper Measurement: biwk to end\nEndpoint TGD. Animals are monitored individually. The endpoint of the experiment is a tumor volume of 2000 mm^3 or 45 days, whichever comes first. Responders can be followed longer. When the endpoint is reached, the animals are euthanized per SOP."}, "PI3K pathway [4]": {"test_system": "PI3K pathway", "test": "Phase I single-agent GDC-0077: pharmacodynamics", "format": "in vivo, human", "protocol": "Pharmacodynamic activity was assessed pre- and on-study (after 2 weeks of daily GDC-0077 treatment) with FDG-PET scans, in tumor biopsies via immunohistochemistry (IHC), and in ctDNA samples (by FoundationACT)."}, "[5]": {"test_system": "locally advanced or metastatic PIK3CA-mutant solid tumors", "test": "Phase I single-agent GDC-0077: clinical activity (RECIST v1.1)", "format": "in vivo, human", "protocol": "Tumor assessments were performed by RECIST v1.1 at screening and every 8 weeks to assess preliminary anti-tumor activity."}, "[6]": {"test": "Phase I single-agent GDC-0077: pharmacokinetics", "format": "in vivo, human", "protocol": "To evaluate single dose pharmacokinetics (PK), frequent blood sampling was performed up to 48 hours after the initial dose at Cycle 1 Day 1. Once daily dosing was initiated from Cycle 1 Day 8 and blood sampling to evaluate PK at steady state was conducted at Cycle 1 Day 15."}, "[7]": {"test_system": "tumor cells bearing mutant PI3K", "conditions": "cited from earlier work"}, "[8]": {"molecular_target": "Class I PI3K alpha isoform (Homo sapiens, UniProt P42336)", "sequence (P42336 whole entry, canonical isoform)": "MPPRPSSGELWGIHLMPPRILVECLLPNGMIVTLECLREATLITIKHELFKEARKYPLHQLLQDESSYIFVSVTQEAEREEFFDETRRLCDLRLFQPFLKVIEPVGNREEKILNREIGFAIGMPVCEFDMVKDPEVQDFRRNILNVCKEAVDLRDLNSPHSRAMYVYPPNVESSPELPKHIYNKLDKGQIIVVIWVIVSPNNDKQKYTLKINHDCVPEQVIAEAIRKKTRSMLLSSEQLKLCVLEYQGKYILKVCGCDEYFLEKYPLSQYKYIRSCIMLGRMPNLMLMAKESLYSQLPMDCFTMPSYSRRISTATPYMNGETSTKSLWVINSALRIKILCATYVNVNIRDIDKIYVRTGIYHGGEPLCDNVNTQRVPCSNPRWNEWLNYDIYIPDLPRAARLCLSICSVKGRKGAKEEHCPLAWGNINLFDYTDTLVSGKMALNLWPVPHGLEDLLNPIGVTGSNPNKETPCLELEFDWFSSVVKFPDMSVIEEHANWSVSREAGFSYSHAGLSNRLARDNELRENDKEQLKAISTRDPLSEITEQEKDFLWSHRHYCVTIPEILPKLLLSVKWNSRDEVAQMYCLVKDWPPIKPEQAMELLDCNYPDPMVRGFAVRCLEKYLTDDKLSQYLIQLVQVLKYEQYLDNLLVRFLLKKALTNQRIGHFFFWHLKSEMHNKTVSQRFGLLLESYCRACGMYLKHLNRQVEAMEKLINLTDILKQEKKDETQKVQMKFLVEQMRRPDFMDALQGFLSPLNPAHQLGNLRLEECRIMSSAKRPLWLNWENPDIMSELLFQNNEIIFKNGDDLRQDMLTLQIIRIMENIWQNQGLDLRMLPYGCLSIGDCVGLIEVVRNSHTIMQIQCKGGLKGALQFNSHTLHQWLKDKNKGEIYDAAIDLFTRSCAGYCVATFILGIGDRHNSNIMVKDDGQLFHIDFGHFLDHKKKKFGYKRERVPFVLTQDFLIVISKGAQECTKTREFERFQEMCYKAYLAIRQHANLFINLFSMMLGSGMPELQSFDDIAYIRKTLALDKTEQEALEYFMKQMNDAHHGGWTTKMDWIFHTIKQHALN", "sequence (P27986 whole entry partner, canonical isoform)": "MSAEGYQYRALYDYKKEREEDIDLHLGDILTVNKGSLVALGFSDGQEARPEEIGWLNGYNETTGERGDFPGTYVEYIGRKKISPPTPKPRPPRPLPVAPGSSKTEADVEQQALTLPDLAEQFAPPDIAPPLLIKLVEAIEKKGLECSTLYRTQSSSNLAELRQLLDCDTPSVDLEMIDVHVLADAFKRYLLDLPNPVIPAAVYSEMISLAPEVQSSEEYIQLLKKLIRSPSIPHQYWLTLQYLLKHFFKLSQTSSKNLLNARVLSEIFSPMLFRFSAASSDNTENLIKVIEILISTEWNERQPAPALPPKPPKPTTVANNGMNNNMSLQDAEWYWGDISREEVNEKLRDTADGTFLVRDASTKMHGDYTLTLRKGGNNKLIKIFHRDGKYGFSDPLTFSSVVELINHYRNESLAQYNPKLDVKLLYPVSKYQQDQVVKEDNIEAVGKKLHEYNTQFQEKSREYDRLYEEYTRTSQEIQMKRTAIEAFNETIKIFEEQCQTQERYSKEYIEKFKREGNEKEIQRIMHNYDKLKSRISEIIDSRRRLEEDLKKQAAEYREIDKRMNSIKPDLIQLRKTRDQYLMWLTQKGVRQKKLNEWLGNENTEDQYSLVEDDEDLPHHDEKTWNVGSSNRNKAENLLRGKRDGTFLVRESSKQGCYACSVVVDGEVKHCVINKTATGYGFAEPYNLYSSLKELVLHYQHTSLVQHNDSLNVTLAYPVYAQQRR", "conditions": "versus PI3K alpha; cited from earlier work"}, "[9]": {"test": "Phase I/Ib inavolisib + palbociclib + fulvestrant: pharmacokinetics", "parameters": "species or system human", "conditions": "in vivo"}, "[10]": {"test": "Phase I/Ib GDC-0077 + fulvestrant: pharmacokinetics and food effect", "format": "in vivo, human", "protocol": "Safety (NCI-CTCAE v4), PK, and preliminary antitumor activity (clinical benefit rate [CBR]: RECIST v1.1 stable disease for ≥24 weeks, partial response [PR], or complete response) were assessed. The effect of a standard high-fat meal on the PK of G was evaluated after a single dose and at steady state. Relevant signaling and pharmacodynamic (PD) biomarkers were assessed using circulating tumor (ct) DNA samples."}, "PI3K pathway [11]": {"test_system": "PI3K pathway", "test": "Phase Ib GDC-0077 + letrozole with or without palbociclib: pharmacodynamics", "format": "in vivo, human", "protocol": "Pharmacodynamic activity was assessed pre- and on-study (after 2 weeks of daily GDC-0077 treatment), in tumor biopsies via immunohistochemistry (IHC), and in ctDNA samples (by FoundationACT)."}, "[12]": {"conditions": "in combination with fulvestrant"}, "[13]": {"conditions": "19 patients with measurable disease"}}, "note": "Where two headings read alike, the source gives them in different places.", "data": [{"smiles": "N#Cc1ccc(C(c2ccc(C#N)cc2)n2cncn2)cc1", "note": "[letrozole, 4,4′-((1H-1,2,4-triazol-1-yl)methylene)dibenzonitrile, reference compound]", "values": [{"measurement": "pharmacokinetics in combination with GDC-0077 versus single-agent PK reported in literature", "setting": "[1]; in vivo", "value": "comparable"}]}, {"smiles": "CC(=O)c1c(C)c2cnc(Nc3ccc(N4CCNCC4)cn3)nc2n(C2CCCC2)c1=O", "note": "[palbociclib, 6-acetyl-8-cyclopentyl-5-methyl-2-(5-(piperazin-1-yl)pyridin-2-ylamino)pyrido[2,3-d]pyrimidin-7(8H)-one]", "values": [{"measurement": "cycle delays", "setting": "[2]; [12]", "value": 36, "unit": "%"}, {"measurement": "dose holds", "setting": "[2]; [12]", "value": 54, "unit": "%"}, {"measurement": "patients required ≥1 dose reduction of palbociclib", "setting": "[2]; [12]", "value": 34, "unit": "%"}, {"measurement": "cycle delays", "setting": "[2]; in combination with letrozole", "value": 68, "unit": "%"}, {"measurement": "dose holds", "setting": "[2]; in combination with letrozole", "value": 70, "unit": "%"}, {"measurement": "patients required ≥1 dose reduction of palbociclib", "setting": "[2]; in combination with letrozole", "value": 36, "unit": "%"}, {"measurement": "% TGI", "setting": "[3]", "value": 45, "unit": "%"}, {"measurement": "CR", "setting": "[3]", "value": 0}, {"measurement": "PR", "setting": "[3]", "value": 0}, {"measurement": "pharmacokinetics in combination with GDC-0077 versus single-agent PK reported in literature", "setting": "[1]; in vivo", "value": "comparable"}]}, {"smiles": "C[C@H](Nc1ccc2c(c1)OCCn1cc(N3C(=O)OC[C@H]3C(F)F)nc1-2)C(N)=O", "note": "[GDC-0077, (S)-2-((2-((S)-4-(difluoromethyl)-2-oxooxazolidin-3-yl)-5,6-dihydrobenzo[f]imidazo[1,2-d][1,4]oxazepin-9-yl)amino)propanamide]", "values": [{"measurement": "FDG-PET scans", "setting": "PI3K pathway [4]; baseline and after 2 weeks of daily GDC-0077", "value": "metabolic responses at all dose levels evaluated"}, {"measurement": "PI3K pathway activity in paired tumor biopsies by IHC for phosphoproteins", "setting": "PI3K pathway [4]; in vivo", "value": "Decreased"}, {"measurement": "ctDNA PIK3CA mutant allele frequency", "setting": "PI3K pathway [4]; over time, majority of specimens", "value": "Decreased"}, {"measurement": "best overall response rate", "setting": "[5]; [13]", "value": 26, "unit": "%"}, {"measurement": "confirmed overall response rate", "setting": "[5]; [13]", "value": 21, "unit": "%"}, {"measurement": "clinical benefit rate", "setting": "[5]; 20 patients", "value": 45, "unit": "%"}, {"measurement": "clinical benefit", "setting": "[5]; of 20 patients", "value": 9, "unit": "patients"}, {"measurement": "best overall response rate", "setting": "[5]; overall, 20 patients", "value": 25, "unit": "%"}, {"measurement": "confirmed PR", "setting": "[5]; overall, 20 patients", "value": 4, "unit": "patients"}, {"measurement": "confirmed overall response rate", "setting": "[5]; overall, 20 patients", "value": 20, "unit": "%"}, {"measurement": "partial response (PR)", "setting": "[5]; overall, 20 patients", "value": 5, "unit": "patients"}, {"measurement": "overall response rate", "setting": "[5]; patients with tumors harboring PIK3CA mutations (conclusions)", "value": 210, "unit": "%"}, {"measurement": "PK variability (% CV) for Cmax and AUC0-24", "setting": "[6]; after a single dose and at steady state at MTD (9 mg)", "value": "~20", "unit": "%"}, {"measurement": "half-life", "setting": "[6]; human, plasma, oral, following a single dose, read-out: Mean half-life (t1/2) (converted)", "value": 18.1, "unit": "h"}, {"measurement": "Plasma exposure versus dose", "setting": "[6]; single and multiple doses", "value": "increased proportionally"}, {"measurement": "potency in tumor cells bearing mutant PI3K over wild type (WT) PI3K cells", "setting": "[7]", "value": "increased potency"}, {"measurement": "fold less potent biochemical inhibition for other Class I PI3K beta, delta, and gamma isoforms", "setting": "[8]", "value": "> 300", "unit": "fold"}, {"measurement": "drug-drug interactions with concomitant therapies (palbociclib and fulvestrant [and metformin])", "setting": "[9]", "value": "no drug-drug interactions"}, {"measurement": "pharmacokinetics of inavolisib in combination with palbociclib+fulvestrant versus single-agent inavolisib", "setting": "[9]", "value": "similar"}, {"measurement": "PK of GDC-0077 in combination with fulvestrant versus single-agent PK", "setting": "[10]; in vivo", "value": "similar"}, {"measurement": "GDC-0077 exposures (Cmax and AUC0-24) in fasted or fed states", "setting": "[10]; standard high-fat meal, single dose and steady state", "value": "Comparable"}, {"measurement": "% TGI", "setting": "[3]", "value": 35, "unit": "%"}, {"measurement": "CR", "setting": "[3]", "value": 0}, {"measurement": "PR", "setting": "[3]", "value": 0}, {"measurement": "PI3K pathway effectors (pAKT, pS6) in paired tumor biopsies", "setting": "PI3K pathway [11]; GDC-0077 with letrozole with or without palbociclib", "value": "Robust PD downregulation"}, {"measurement": "PIK3CA mutant allele frequency by ctDNA", "setting": "PI3K pathway [11]; between Cycle 1 Day 1 and Cycle 1 Day 15, majority of available samples", "value": "decreased"}, {"measurement": "plasma exposure of GDC-0077, single agent versus combination arms", "setting": "[1]; Preliminary results", "value": "similar"}, {"measurement": "drug-drug interaction with concomitant medications (palbociclib and letrozole)", "setting": "[1]; in vivo", "value": "no drug-drug interaction"}, {"measurement": "colitis", "setting": "9 patients treated ≥5 months", "value": "No colitis"}, {"measurement": "MTD", "setting": "QD, single agent", "value": 9, "unit": "mg"}, {"measurement": "Dose-limiting toxicities", "setting": "at 12 mg (1 Grade 4 hyperglycemia, 1 Grade 3 fatigue)", "value": 2, "unit": "patients"}, {"measurement": "treatment related high-grade gastrointestinal toxicities", "setting": "treatment-related diarrhea events all Grade 1-2", "value": "No treatment related high-grade gastrointestinal toxicities"}]}, {"smiles": "C[C@]12CC[C@@H]3c4ccc(O)cc4C[C@@H](CCCCCCCCC[S+]([O-])CCCC(F)(F)C(F)(F)F)[C@H]3[C@@H]1CC[C@@H]2O", "note": "(stereo partly drawn) [fulvestrant, (7α,17β)-7-{9-[(4,4,5,5,5-pentafluoropentyl)sulfinyl]nonyl}estra-1,3,5(10)-triene-3,17-diol]", "values": [{"measurement": "% TGI", "setting": "[3]", "value": 52, "unit": "%"}, {"measurement": "CR", "setting": "[3]", "value": 0}, {"measurement": "PR", "setting": "[3]", "value": 0}]}]}
